Type in all cases: cell-based
The subject of test [1] is IFNγ stimulated STAT1 phosphorylation in CD14+ monocytes. Briefly: Cellular JAK potency assay: inhibition of IFNγ-induced pSTAT1. As to conditions: Homo sapiens, Monocyte, 0.5 h, read-out: pIC50, inhibition of IFNγ-induced pSTAT1 (converted). An excerpt: Data are expressed as pIC50 (negative decadic logarithm IC50) values.
The subject of test [2] is GM-CSF stimulated STAT5 phosphorylation in CD14+ monocytes. The experiment in a line: Cellular JAK potency assay: inhibition of GM-CSF-induced pSTAT5. As to conditions: Homo sapiens, Monocyte, 0.25 h, read-out: pIC50, inhibition of GM-CSF-induced pSTAT5 (converted). The protocol:
Assay 15: Cellular JAK Potency Assay: Inhibition of GM-CSF-Induced pSTAT5
The potency of test compounds for inhibition of granulocyte-macrophage colony-stimulating factor (GM-CSF) stimulated STAT5 phosphorylation was measured in CD14-positive (CD14+) monocytes derived from human whole blood (Stanford Blood Center) using flow cytometry. Because GM-CSF signals through JAK, this assay provides a measure of JAK cellular potency.
Monocytes were identified using a fluorescein isothiocyanate (FITC) conjugated anti-CD14 antibody (Clone RM052, Beckman Coulter), and an Alexa Fluor 647 conjugated anti-pSTAT5 antibody (pY694, BD Biosciences) was used to detect STAT5 phosphorylation.
Human peripheral blood mononuclear cells (PBMC) were isolated from human whole blood of healthy donors using a ficoll gradient. […] Cells were washed twice with FACS buffer, and then re-suspended in 1:10 […] Alexa Fluor 647:FACS buffer (100 μL) for 30 min at RT in the dark, washed twice in FACS buffer, and analyzed using a MACSQuant flow cytometer (Miltenyi).
To determine the inhibitory potency of the test compound, the median fluorescent intensity (MFI) of pSTAT5 was measured in CD14+ monocytes. IC50 values were determined from analysis of the inhibition curves of MFI vs compound concentration. Data are expressed as pIC50 (negative decadic logarithm IC50) values.

The subject of test [3] is IL-12 stimulated STAT4 phosphorylation in CD3+ T cells. The experiment in a line: Cellular JAK potency assay: inhibition of IL-12-induced pSTAT4. Conditions: Homo sapiens, T-cell, 0.5 h, read-out: pIC50, inhibition of IL-12-induced pSTAT4 (converted). As to the method: Assay 16: Cellular JAK Potency Assay: Inhibition of IL-12-Induced pSTAT4
The potency of test compounds for inhibition of interleukin-12 (IL-12) stimulated STAT4 phosphorylation was measured in CD3-positive (CD3+) T cells derived from human whole blood (Stanford Blood Center) using flow cytometry. Because IL-12 signals through JAK, this assay provides a measure of JAK cellular potency.
CD3+ T cells were identified using a phycoerythrin (PE) conjugated anti-CD3 antibody (clone UCHT1, BD Biosciences), and an Alexa Fluor 647 conjugated anti-pSTAT4 antibody (clone 38/p-Stat4, BD Biosciences) was used to detect STAT4 phosphorylation.
Human peripheral blood mononuclear cells (PBMC) were isolated from human whole blood of healthy donors using a ficoll gradient. […] After incubation, cells were washed twice in FACS buffer before being analyzed using a MACSQuant flow cytometer (Miltenyi). To determine the inhibitory potency of the test compound, the median fluorescent intensity (MFI) of pSTAT4 was measured in CD3+ T cells. IC50 values were determined from analysis of the inhibition curves of MFI vs compound concentration. Data are expressed as pIC50 (negative decadic logarithm IC50) values.

The structures appear in SMILES notation. Where two headings read alike, the source gives them in different places.

As for `CCCN1Cc2[nH]c(-c3n[nH]c4cc(-c5ccc(O)cc5CC)ccc34)nc2C[C@H]1C(=O)N1CCN(CCO)CC1` [Compound 1, (S)-(2-(6-(2-ethyl-4-hydroxyphenyl)-1H-indazol-3-yl)-5-propyl-4,5,6,7-tetrahydro-3H-imidazo[4,5-c]pyridin-6-yl)(4-(2-hydroxyethyl)piperazin-1-yl)methanone], the IC50 in test [1] (CD14+ monocytes, IFNγ 0.6 ng/mL, 30 min, flow cytometry) was 0.0316 µM; in test [2] (CD14+ monocytes, GM-CSF 0.3 ng/mL, 15 min, flow cytometry), 0.2 µM; in test [3] (CD3+ T cells, IL-12 10 ng/mL, 30 min, flow cytometry) it was 0.631 µM.
`CCc1cc(O)ccc1-c1ccc2c(-c3nc4c([nH]3)CN(C(C)C)[C@H](C(=O)N3CCCN(C)CC3)C4)n[nH]c2c1` [Compound 4, (S)-(2-(6-(2-ethyl-4-hydroxyphenyl)-1H-indazol-3-yl)-5-isopropyl-4,5,6,7-tetrahydro-3H-imidazo[4,5-c]pyridin-6-yl)(4-methyl-1,4-diazepan-1-yl)methanone]: the IC50 was 0.0501 µM in test [1], 0.2 µM in test [2] and 1 µM in test [3].

These data come from patent US10836763B2, “5 to 7 membered heterocyclic amides as JAK inhibitors” (priority 2018, dated 2020).
